The target in the assay is T1, human PD-1 / PD-L1-Ig binding on Jurkat cell line over-expressing human PD-1 (Jurkat-PD-1) (Homo sapiens, UniProt Q15116).
T1 construct: expressed in transfected cells; host or cells: Jurkat
Nature of the assay: Jurkat-PD-1 Cell Binding High-Content Screening Assay (CBA). The note with it: Jurkat-PD-1 cells, PE-labeled PD-L1-Ig 20 nM final; read-out: Jurkat HPD1_PDL1 IC50. The format is cell-based. The essentials:
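Jurkat-hPD-1 cells in DMEM with 10% fetal calf serum receive test compound and are held at 37° C for 2 h. PE-labeled PD-L1-Ig is added at 20 nM final and left for 1 hour. Cells are then fixed and Hoechst-stained, and binding is measured by imaging.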

For orientation: IC50 means the midpoint of a concentration-inhibition curve.

Where a SMILES comes first, the peptide text is derived from it. Bridges are numbered along the chain shown (N, C = ends). [ ]: non-standard residue; d: D form. The star is where a group is joined. Phe(4-NO2) = N[C@@H](Cc1ccc([N+](=O)[O-])cc1)C(=O)O; Phe(4-COOH) = N[C@@H](Cc1ccc(C(=O)O)cc1)C(=O)O; Asp(3,3-Me2) = CC(C)(C(=O)O)[C@H](N)C(=O)O; Bip = N[C@@H](Cc1ccc(-c2ccccc2)cc1)C(=O)O; Phe(3-Me) = Cc1cccc(C[C@H](N)C(=O)O)c1; Val(3-OH) = CC(C)(O)[C@H](N)C(=O)O; aIle = CC[C@@H](C)[C@H](N)C(=O)O; 4Pal = N[C@@H](Cc1ccncc1)C(=O)O; 2Thi = N[C@@H](Cc1cccs1)C(=O)O; Cha = N[C@@H](CC1CCCCC1)C(=O)O; Cit = NC(=O)NCCC[C@H](N)C(=O)O; dCha = N[C@H](CC1CCCCC1)C(=O)O; Chg = N[C@H](C(=O)O)C1CCCCC1; Carboxymethyl = O=C(O)C*; Orn = NCCC[C@H](N)C(=O)O; Dab = NCC[C@H](N)C(=O)O; Dap = NC[C@H](N)C(=O)O

T1 sequence (Q15116 25-288): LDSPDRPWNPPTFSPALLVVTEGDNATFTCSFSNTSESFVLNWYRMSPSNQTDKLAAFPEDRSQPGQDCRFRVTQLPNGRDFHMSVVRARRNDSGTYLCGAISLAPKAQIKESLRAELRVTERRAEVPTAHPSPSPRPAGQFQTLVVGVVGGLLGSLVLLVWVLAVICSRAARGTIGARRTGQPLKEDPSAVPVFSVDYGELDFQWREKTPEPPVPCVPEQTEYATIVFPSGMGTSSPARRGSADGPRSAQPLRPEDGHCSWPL

On to `CC[C@H](C)[C@@H]1NC(=O)[C@H](Cc2ccc(-c3ccccc3)cc2)NC(=O)[C@H](C(C)C)NC(=O)[C@H](Cc2c[nH]c3ccccc23)NC(=O)[C@H](CC(=O)O)NC(=O)[C@H](Cc2ccc(O)cc2)NC(=O)[C@H](CC(N)=O)NC(=O)CSC[C@@H](C(=O)N[C@@H](C)C(N)=O)NC(=O)[C@H]([C@@H](C)O)NC(=O)[C@H](C(C)C)NC(=O)[C@H](CC2CCCCC2)NC(=O)[C@H](CCN)NC(=O)[C@@H](CC(C)C)NC(=O)[C@H](CCCN)NC1=O` [Compound 1163] ({CH2CO}-NYDWV[Bip]I[Orn][dL][Dab][Cha]VTCA-NH2; thioether N-14), for which the IC50 worked out at 26.1 nM.

As for `Cc1cccc(C[C@@H]2NC(=O)[C@H](CC(=O)O)NC(=O)[C@H](Cc3ccc(C(=O)O)cc3)NC(=O)[C@H](Cc3ccncc3)NC(=O)CSC[C@@H](C(=O)N[C@@H](CCN)C(N)=O)NC(=O)[C@H](CO)NC(=O)[C@H](C(C)(C)O)NC(=O)[C@H](CC3CCCCC3)NC(=O)[C@H](CCN)NC(=O)[C@@H](CC(C)C)NC(=O)[C@H](C(C)(C)C(=O)O)NC(=O)[C@H](Cc3ccc(OCC(=O)O)cc3)NC(=O)[C@H](Cc3ccc(-c4ccccc4)cc3)NC(=O)[C@H](Cc3ccc(OCC(=O)O)cc3)NC2=O)c1` [Compound 2072] ({CH2CO}-[4Pal][Phe(4-COOH)]D[Phe(3-Me)]Y(Carboxymethyl)[Bip]Y(Carboxymethyl)[Asp(3,3-Me2)][dL][Dab][Cha][Val(3-OH)]SC[Dab]-NH2; thioether N-14), the IC50 amounted to 19.5 nM.

Regarding `CC(C)C[C@@H]1NC(=O)[C@H](Cc2c[nH]c3ccccc23)NC(=O)[C@H](CC(=O)O)NC(=O)[C@H](Cc2ccc(C(=O)O)cc2)NC(=O)[C@H](Cc2ccc(OCC(=O)O)cc2)NC(=O)CSC[C@@H](C(=O)NCC(N)=O)NC(=O)[C@H](CO)NC(=O)[C@H](C(C)C)NC(=O)[C@H](CC2CCCCC2)NC(=O)[C@H](CCN)NC(=O)[C@@H](CC(C)C)NC(=O)[C@H](CCCN)NC(=O)[C@H](C(C)C)NC(=O)[C@H](Cc2ccc(-c3ccccc3)cc2)NC1=O` [Compound 1405] ({CH2CO}-Y(Carboxymethyl)[Phe(4-COOH)]DWL[Bip]V[Orn][dL][Dab][Cha]VSCG-NH2; thioether N-14), the IC50 is 7.4 nM.

Regarding `CC(C)C[C@H]1NC(=O)[C@H](CCCN)NC(=O)[C@H](CCCNC(N)=O)NC(=O)[C@H](Cc2ccc(-c3ccccc3)cc2)NC(=O)[C@H](C(C)C)NC(=O)[C@H](Cc2c[nH]c3ccccc23)NC(=O)[C@H](CC(=O)O)NC(=O)[C@H](Cc2ccc([N+](=O)[O-])cc2)NC(=O)[C@H](CN)NC(=O)CSC[C@@H](C(=O)N[C@@H](C)C(N)=O)NC(=O)[C@H]([C@@H](C)O)NC(=O)[C@H](C(C)C)NC(=O)[C@H](CC2CCCCC2)NC(=O)[C@H](CCN)NC1=O` [Compound 2110] ({CH2CO}-[Dap][Phe(4-NO2)]DWV[Bip][Cit][Orn][dL][Dab][Cha]VTCA-NH2; thioether N-14), the half-maximal inhibitory concentration (IC50) worked out at 18.2 nM.

With `CC(C)C[C@H]1NC(=O)[C@H](CCCN)NC(=O)[C@H](CCCNC(N)=O)NC(=O)[C@H](Cc2ccc(-c3ccccc3)cc2)NC(=O)[C@H](C(C)C)NC(=O)[C@H](Cc2c[nH]c3ccccc23)NC(=O)[C@H](CC(=O)O)NC(=O)[C@H](Cc2ccc(OCC(=O)O)cc2)NC(=O)[C@H](CN)NC(=O)CSC[C@@H](C(=O)N[C@@H](C)C(N)=O)NC(=O)[C@H]([C@@H](C)O)NC(=O)[C@H](C(C)C)NC(=O)[C@H](Cc2ccccn2)NC(=O)[C@H](CCN)NC1=O` [Compound 1349], the IC50 is 54.9 nM.

For the compound `CCC(C)[C@@H]1NC(=O)[C@H](Cc2ccc(-c3ccccc3)cc2)NC(=O)[C@H](C(C)C)NC(=O)[C@H](Cc2cccc(C)c2)NC(=O)[C@H](CC(=O)O)NC(=O)[C@H](Cc2ccc(-c3cccc(C(=O)O)c3)cc2)NC(=O)[C@H](Cc2ccc(OCC(=O)O)cc2)NC(=O)CSC[C@@H](C(=O)N[C@@H](C)C(N)=O)NC(=O)[C@H]([C@@H](C)O)NC(=O)[C@H](C(C)C)NC(=O)[C@H](CC2CCCCC2)NC(=O)[C@H](CCN)NC(=O)[C@@H](CC(C)C)NC(=O)[C@H](CCCN)NC1=O` (stereo partly drawn) [Compound 2225], the concentration for half-maximal inhibition (IC50) is 182 nM.

With `CC(C)C[C@H]1NC(=O)[C@H](CCCN)NC(=O)[C@H](CCC(=O)O)NC(=O)[C@H](Cc2ccc(-c3ccccc3)cc2)NC(=O)[C@H](C(C)C)NC(=O)[C@H](Cc2c[nH]c3ccccc23)NC(=O)[C@H](CC(=O)O)NC(=O)[C@H](Cc2ccc(-c3cccc(C(=O)O)c3)cc2)NC(=O)[C@H](CN)NC(=O)CSC[C@@H](C(=O)N[C@@H](C)C(N)=O)NC(=O)[C@H]([C@@H](C)O)NC(=O)[C@H](C(C)C)NC(=O)[C@H](CC2CCCCC2)NC(=O)[C@H](CCN)NC1=O` [Compound 2166], the half-maximal inhibitory concentration (IC50) amounted to 22.7 nM.

For the compound `CC(C)C[C@H]1NC(=O)[C@H](CCCN)NC(=O)[C@H](CCC(=O)O)NC(=O)[C@H](Cc2ccc(-c3ccccc3)cc2)NC(=O)[C@H](C(C)C)NC(=O)[C@H](Cc2c[nH]c3ccccc23)NC(=O)[C@H](CC(=O)O)NC(=O)[C@H](Cc2cccs2)NC(=O)[C@H](CC(N)=O)NC(=O)CSC[C@@H](C(=O)N[C@@H](C)C(N)=O)NC(=O)[C@H]([C@@H](C)O)NC(=O)[C@H](C(C)C)NC(=O)[C@H](CC2CCCCC2)NC(=O)[C@H](CCN)NC1=O` [Compound 2190] ({CH2CO}-N[2Thi]DWV[Bip]E[Orn][dL][Dab][Cha]VTCA-NH2; thioether N-14), the IC50 amounted to 15.3 nM.

For the compound `CC(C)C[C@@H]1NC(=O)[C@H](Cc2c[nH]c3ccccc23)NC(=O)[C@H](CC(=O)O)NC(=O)[C@H](Cc2ccc(C(=O)O)cc2)NC(=O)[C@H](Cc2ccc(OCC(=O)O)cc2)NC(=O)CSC[C@@H](C(=O)NCC(N)=O)NC(=O)[C@H](CO)NC(=O)[C@H](C(C)C)NC(=O)[C@H](CC(C)C)NC(=O)[C@H](CC(N)=O)NC(=O)[C@@H](CC(C)C)NC(=O)[C@H](CCN)NC(=O)[C@H](C(C)C)NC(=O)[C@H](Cc2ccc(-c3ccccc3)cc2)NC1=O` [Compound 1279] ({CH2CO}-Y(Carboxymethyl)[Phe(4-COOH)]DWL[Bip]V[Dab][dL]NLVSCG-NH2; thioether N-14), the IC50 turned out to be 13.6 nM.

Turning to `CC(C)C[C@H]1NC(=O)[C@H](CCCN)NC(=O)[C@H](C(C)C)NC(=O)[C@H](Cc2ccc(-c3ccccc3)cc2)NC(=O)[C@H](C(C)C)NC(=O)[C@H](Cc2c[nH]c3ccccc23)NC(=O)[C@H](CC(=O)O)NC(=O)[C@H](Cc2ccc(OCC(=O)O)cc2)NC(=O)[C@H](Cc2ccncc2)NC(=O)CSC[C@@H](C(=O)N[C@@H](C)C(N)=O)NC(=O)[C@H](C(C)O)NC(=O)[C@H](C(C)C)NC(=O)[C@H](CC2CCCCC2)NC(=O)[C@H](CCN)NC1=O` (stereo partly drawn) [Compound 2522], the IC50 worked out at 6.9 nM.

Turning to `CC(C)C[C@@H]1NC(=O)[C@H](Cc2c[nH]c3ccccc23)NC(=O)[C@H](CC(=O)O)NC(=O)[C@H](Cc2ccc(O)cc2)NC(=O)[C@H](Cc2ccccc2)NC(=O)CSC[C@@H](C(=O)N[C@@H](C)C(N)=O)NC(=O)[C@H](CO)NC(=O)[C@H](C(C)C)NC(=O)[C@H](CC(C)C)NC(=O)[C@H](CCN)NC(=O)[C@@H](C)NC(=O)[C@H](CN)NC(=O)[C@H](C(C)C)NC(=O)[C@H](Cc2ccc(-c3ccccc3)cc2)NC1=O` [Compound 1079] ({CH2CO}-FYDWL[Bip]V[Dap][dA][Dab]LVSCA-NH2; thioether N-14), the IC50 is 29.5 nM.

Regarding `CC(C)[C@@H]1NC(=O)[C@H](Cc2c[nH]c3ccccc23)NC(=O)[C@H](CC(=O)O)NC(=O)[C@H](Cc2ccc(OCC(=O)O)cc2)NC(=O)[C@H](CN)NC(=O)CSC[C@@H](C(=O)N[C@@H](C)C(N)=O)NC(=O)[C@H]([C@@H](C)O)NC(=O)[C@H](C(C)C)NC(=O)[C@H](CC2CCCCC2)NC(=O)[C@H](CCN)NC(=O)[C@@H](CC2CCCCC2)NC(=O)[C@H](CCCN)NC(=O)[C@H](CCCNC(N)=O)NC(=O)[C@H](Cc2ccc(-c3ccccc3)cc2)NC1=O` [Compound 1643] ({CH2CO}-[Dap]Y(Carboxymethyl)DWV[Bip][Cit][Orn][dCha][Dab][Cha]VTCA-NH2; thioether N-14), the half-maximal inhibitory concentration (IC50) was 14.5 nM.

In the case of `CC(C)C[C@H]1NC(=O)[C@H](CCCN)NC(=O)[C@H](C(C)C)NC(=O)[C@H](Cc2ccc(-c3ccccc3)cc2)NC(=O)[C@H](C(C)C)NC(=O)[C@H](Cc2c[nH]c3ccccc23)NC(=O)[C@H](CC(=O)O)NC(=O)[C@H](Cc2ccc(O)cc2)NC(=O)[C@H](Cc2ccc(OCC(=O)O)cc2)NC(=O)CSC[C@@H](C(=O)N[C@@H](C)C(N)=O)NC(=O)[C@H]([C@@H](C)O)NC(=O)[C@H](C(C)C)NC(=O)[C@H](CC2CCCCC2)NC(=O)[C@H](CCN)NC1=O` [Compound 1173], the IC50 worked out at 9.7 nM.

With `CC(C)C[C@H]1NC(=O)[C@H](CCCN)NC(=O)[C@H](CCC(=O)O)NC(=O)[C@H](Cc2ccc(-c3ccccc3)cc2)NC(=O)[C@H](C2CCCCC2)NC(=O)[C@H](Cc2c[nH]c3ccccc23)NC(=O)[C@H](CC(=O)O)NC(=O)[C@H](Cc2ccc(OCC(=O)O)cc2)NC(=O)[C@H](CN)NC(=O)CSC[C@@H](C(=O)N[C@@H](C)C(N)=O)NC(=O)[C@H]([C@@H](C)O)NC(=O)[C@H](C(C)C)NC(=O)[C@H](CC2CCCCC2)NC(=O)[C@H](CCN)NC1=O` [Compound 1714] ({CH2CO}-[Dap]Y(Carboxymethyl)DW[Chg][Bip]E[Orn][dL][Dab][Cha]VTCA-NH2; thioether N-14), the 50% inhibitory concentration (IC50) amounted to 37.6 nM.

Regarding `CC[C@@H](C)[C@@H]1NC(=O)[C@H](Cc2ccc(-c3ccccc3)cc2)NC(=O)[C@H](C(C)C)NC(=O)[C@H](Cc2c[nH]c3ccccc23)NC(=O)[C@H](CC(=O)O)NC(=O)[C@H](Cc2ccc(O)cc2)NC(=O)[C@H](CC(N)=O)NC(=O)CSC[C@@H](C(=O)N[C@@H](C)C(N)=O)NC(=O)[C@H]([C@@H](C)O)NC(=O)[C@H](C(C)C)NC(=O)[C@H](CC2CCCCC2)NC(=O)[C@H](CCN)NC(=O)[C@@H](CC2CCCCC2)NC(=O)[C@H](CCCN)NC1=O` [Compound 1631] ({CH2CO}-NYDWV[Bip][aIle][Orn][dCha][Dab][Cha]VTCA-NH2; thioether N-14), the 50% inhibitory concentration (IC50) amounted to 44.1 nM.

(Values after US20250163104A1, “MACROCYCLIC IMMUNOMODULATORS” (priority 2021, published 2025).)
